The values that follow are results of earlier work, collected in PMC7765930, “Antiproliferative Phenanthrenes from Juncus tenuis: Isolation and Diversity-Oriented Semisynthetic Modification” (Molecules, 2020).

Broadly, the IC50 is the point on the concentration scale where inhibition reaches its midpoint.

One data set has as its system HL-60 cell line. On the set-up: method as in PMID 22976333. The following applies: read-out: IC50, cytotoxicity against HL-60; cited from earlier work.
In another data set the test system is A549 cells. Set-up: method as in PMID 19193043. The following applies: read-out: IC50, growth inhibition A549; cited from earlier work.
Another data set concerns HCT-8 cells. Set-up: method as in PMID 19193043. The following applies: read-out: IC50, growth inhibition HCT-8; cited from earlier work.
The test system of another data set is DU145 cells. Set-up: method as in PMID 19193043. As to conditions: read-out: IC50, growth inhibition DU145; cited from earlier work.
In another data set the test system is PC-3 cells. On the set-up: method as in PMID 19193043. As to conditions: read-out: IC50, growth inhibition PC-3; cited from earlier work.
The test system of the next data set is MCF-7 cells. Set-up: method as in PMID 19193043. The following applies: read-out: IC50, growth inhibition MCF-7; cited from earlier work.
In the next data set the test system is KB cells. Set-up: method as in PMID 19193043. As to conditions: read-out: IC50, growth inhibition KB; cited from earlier work.
Data set [1] deals with vincristine resistant KBVIN cells. Set-up: method as in PMID 19193043. As to conditions: read-out: IC50, growth inhibition KBVIN; cited from earlier work.

Regarding `COC1=C(OC)C(=O)c2c(ccc3cccc(O)c23)C1=O` [5-hydroxy-2,3-dimethoxy-1,4-phenanthrenequinone], the half-maximal inhibitory concentration (IC50) in the data set on HL-60 cell line is 4700 nM.

On to `COC1=CC(=O)c2ccc3cc(OC)c(OC)c(O)c3c2C1=O` [calanquinone A], for which the IC50 in the data set on A549 cells is 610 nM; with HCT-8 cells, 640 nM; in the data set with DU145 cells, 1080 nM; in the data set with PC-3 cells, 510 nM; in the data set on MCF-7 cells, 100 nM; in the data set on KB cells, 1020 nM. Also, the concentration for half-maximal inhibition (IC50) in data set [1] was 1430 nM.
